In patent publication US10807960B2, “Compounds, compositions, and methods for controlling biofilms” (KATHOLIEKE UNIVERSITEIT LEUVEN, priority 2015, dated 2020):
Like-named read-outs stand apart in the source and are kept apart here. Marks after values point to notes of the source that are not given here.

Legend:
[1] = test system: E. coli TG1 + P. aeruginosa PA14; assay: mixed E. coli/P. aeruginosa biofilm assay, crystal violet; assay type: cell-based; settings: 37° C. (Table 3)
Experimental: Overnight cultures of E. coli TG1 and P. aeruginosa PA14, were diluted 1/100 in the same vial of TSB 1/20 to form a mixed culture suspension.

S. aureus ATCC6538 = assay: static peg (Calgary Biofilm Device) anti-biofilm assay, crystal violet and OD600; settings: 37° C.
[2] = test system: C. albicans SC5314 + S. epidermidis; assay: mixed C. albicans/S. epidermidis biofilm assay, selective plating; assay type: cell-based, Candida albicans; Staphylococcus epidermidis; settings: for CFUs % survival C.a.: C. albicans in mixed biofilm with S. epidermidis; for CFUs % survival C.a. / CFUs % survival S.e.: 37° C.; for CFUs % survival S.e.: S. epidermidis in mixed biofilm with C. albicans
Experimental: The concentrations 25 μM (0.0625% DMSO or ethanol) and 100 μM (0.25% DMSO or ethanol) were tested. After 24 h of incubation at 37° C., biofilms were washed with PBS and fresh medium with or without compounds was added. After further incubation for 48 h at 37° C., the biofilms were washed with PBS after which the cells were re-suspended in 100 μl of PBS by scraping off, sonication (1 min, 45 kHz, USC300-T; VWR, Radnor, Pa., USA) and vigorously pipetting up-and-down. Finally, the biofilm cells were diluted in PBS and plated on YPD agar plates containing 100 mg/L ampicillin and TSA plates containing 25 mg/L amphotericin B, to determine the number of fungal and bacterial CFUs after 2 days of incubation at 37° C., respectively. The percentage of C. albicans SC5314 and S. epidermidis cells was determined relative to the DMSO or ethanol control treatment.

[3] = test system: C. albicans SC5314 + S. aureus SH1000; assay: mixed C. albicans/S. aureus biofilm assay, selective plating; assay type: cell-based, Candida albicans; Staphylococcus aureus; settings: 37° C.; for CFUs % survival S.a.: S. aureus in mixed biofilm with C. albicans
Experimental: Overnight cultures of C. albicans SC5314 (YPD, 30° C.) and S. aureus SH1000 (LB, 37° C.) were washed with PBS, after which they were diluted in RPMI medium to obtain cell suspensions of 10^6 cells/ml for fungal cells and 10^8 cells/ml for bacteria. Equal volumes of these cell suspensions were mixed, and 100 μl of this mixed cell suspension together with compound was added to the wells of a microtiter plate in triplicate. The concentrations 25 μM (0.0625% DMSO or ethanol) and 100 μM (0.25% DMSO or ethanol) were tested. The plates were incubated at 37° C. for 90 min. After incubation the wells were washed twice with PBS, and 200 μl of the fresh RPMI medium with or without compounds was added in triplicate to the wells. After 24 h incubation at 37° C. the medium was removed and the biofilm was washed with PBS. Next, the cells were re-suspended in 100 μl of PBS by scraping off, sonication (1 min, 45 kHz, USC300-T; VWR, Radnor, Pa., USA) and vigorously pipetting up-and-down. Finally, dilution series were made, and quantification of S. aureus SH1000 and C. albicans SC5314 populations was performed using selective plating on TSA plates containing 25 mg/L amphotericin B and YPD plates containing 100 μg/ml tetracycline, respectively. The percentage of C. albicans SC5314 and S. aureus SH1000 cells was determined relative to the DMSO or ethanol control treatment.

[4] = test system: S. aureus ATCC6538 + S. epidermidis; assay: mixed S. aureus/S. epidermidis biofilm assay, crystal violet; assay type: cell-based; settings: 37° C. (Table 3)
Experimental: Overnight cultures of S. aureus ATCC6538 and S. epidermidis were grown in LB medium and were diluted 1/200 in the same vial of TSB to form a mixed culture suspension.

P. gingivalis ATCC33277 = assay: static peg (Calgary Biofilm Device) anti-biofilm assay, crystal violet and OD600; settings: 37° C.
C. albicans SC5314 = assay: inhibition of C. albicans biofilms, cell titer blue (CTB) quantification; assay type: cell-based, Candida albicans; settings: biofilm formation, read-out: BIC50
Experimental: The potential of the compounds to prevent C. albicans SC5314 biofilm formation was assessed using the cell titer blue (CTB) quantification method (26). For the CTB method, an overnight culture of C. albicans SC5314 was washed with PBS and a cell suspension of 10^6 cells/ml (OD600=0.1) was prepared in RPMI 1640 medium (pH 7.0). […] After 16 h of static incubation at 37° C., biofilms were washed and quantified with CTB as described previously.

S. aureus SH1000 = assay: static peg (Calgary Biofilm Device) anti-biofilm assay, crystal violet and OD600; settings: 37° C.
S. liquefaciens MG44 = assay: as above; assay type: cell-based, Serratia liquefaciens
P. aeruginosa PA14 = assay: as above
S. Typhimurium ATCC14028 = assay: as above; settings: read-out: BIC50; biofilm formation, 25° C.
S. epidermidis = assay: as above; settings: 37° C.
E. coli TG1 = assay: as above; settings: 37° C.
[5] = mixed biofilm formation, read-out: BIC50
[6] = planktonic growth of mixed culture, read-out: IC50
[7] = read-out: BIC50, biofilm formation
[8] = C. albicans in mixed biofilm with S. aureus SH1000, 25 μM
[9] = C. albicans in mixed biofilm with S. aureus SH1000, 100 μM
[10] = read-out: BIC50, biofilm formation, 25° C.
[11] = read-out: BIC50, biofilm formation, 37° C.
[12] = biofilm formation, 25° C., read-out: BIC50
[13] = planktonic growth, 25° C., read-out: IC50

Structure (SMILES)	IC50 [1, 5] [µM]	IC50 [1, 6] [µM]	IC50 (S. aureus ATCC6538; planktonic growth) [µM]	IC50 (S. aureus ATCC6538; [7]) [µM]	CFUs % survival C.a. ([2]; 25 μM)	CFUs % survival C.a. ([2]; 100 μM)	CFUs % survival S.e. ([2]; 25 μM)	CFUs % survival S.e. ([2]; 100 μM)	CFUs % survival C.a. [3, 8] [%]	CFUs % survival C.a. [3, 9]	CFUs % survival S.a. ([3]; 25 μM) [%]	CFUs % survival S.a. ([3]; 100 μM)	IC50 [4, 5] [µM]	IC50 [4, 6] [µM]	IC50 (P. gingivalis ATCC33277; planktonic growth) [µM]	IC50 (P. gingivalis ATCC33277; [7]) [µM]	IC50 (S. aureus SH1000; planktonic growth) [µM]	IC50 (S. aureus SH1000; [7]) [µM]	IC50 (P. aeruginosa PA14; planktonic growth, 37° C.) [µM]	IC50 (P. aeruginosa PA14; [10]) [µM]	other results
CCCCCCCCn1c(-c2ccc(Cl)cc2)cnc1N [Compound 2]	36.8	19.9	7.8	2.8	<0.6* %	<0.2* %	0.0* %	0.0* %	183.8	0.9* %	87.7	0.2* %	~7.2	~9.9	6	3.9	8.3	3.4	10	4	biofilm formation of C. albicans/S. epidermidis (in words) ([2]; 25 μM): completely inhibited; IC50 (C. albicans SC5314): 6.2 µM; IC50 (S. liquefaciens MG44; biofilm formation, read-out: BIC50): 18.8 µM; IC50 (S. liquefaciens MG44; planktonic growth, read-out: IC50): 38 µM; IC50 (P. aeruginosa PA14; [11]): 118 µM; IC50 (S. Typhimurium ATCC14028): ~5.9 µM; IC50 (S. epidermidis; planktonic growth): ~11.1 µM; IC50 (S. epidermidis; [7]): ~5.6 µM; IC50 (E. coli TG1; planktonic growth): 7.7 µM; IC50 (E. coli TG1; [7]): ~6.5 µM
CC(C)CNc1ncc(-c2ccc(Cl)cc2)[nH]1 [Compound 3]	7.4	> 400	~96.1	95.3	58.3* %	235.1%	64.6* %	13.2* %	165.7	141.3%	124.6	51.8* %	~26.3	~140	5.1	5.3	~175	~200	> 400	0.9	IC50 (C. albicans SC5314; 37° C.): 93.9 µM; IC50 (S. liquefaciens MG44; [12]): 10.4 µM; IC50 (S. liquefaciens MG44; [13]): 154 µM; IC50 (P. aeruginosa PA14; [11]): > 400 µM; IC50 (S. Typhimurium ATCC14028): 2 µM; IC50 (S. epidermidis; planktonic growth): 86.2 µM; IC50 (S. epidermidis; [7]): > 400 µM; IC50 (E. coli TG1; planktonic growth): 30 µM; IC50 (E. coli TG1; [7]): 110 µM
Clc1ccc(-c2cnc(NC3CCCC3)[nH]2)cc1 [Compound 5]	0.5	> 400	62.3	34.4	167.9%	594.7%	72.0%	2.3* %	232.4	120.6%	75.4	74.5* %	~66.6	~91.7	4	5.7	71.5	70.6	> 400	13.5	activity against S. epidermidis in the C. albicans/S. epidermidis biofilm (in words) ([2]; 100 μM): complete inhibition; IC50 (C. albicans SC5314; 37° C.): 64 µM; IC50 (S. liquefaciens MG44; [12]): 8.8 µM; IC50 (S. liquefaciens MG44; [13]): 125 µM; IC50 (P. aeruginosa PA14; [11]): > 400 µM; IC50 (S. Typhimurium ATCC14028): 4.4 µM; IC50 (S. epidermidis; planktonic growth): 39.5 µM; IC50 (S. epidermidis; [7]): > 400 µM; IC50 (E. coli TG1; planktonic growth): 17.1 µM; IC50 (E. coli TG1; [7]): ~45.7 µM
